Experiment [1] deals with T1, Beta-secretase 1 (Homo sapiens, UniProt P56817). The conditions noted are these: 50 uM.
Experiment [2] addresses Acetylcholinesterase (Electrophorus electricus) (UniProt O42275). The experiment can be described thus: Inhibition of Electrophorus electricus AChE at 10 uM using acetylthiocholine iodide as substrate preincubated for 5 mins followed by substrate addition and measured after 5 mins by Ellman's method relative to control.
Experiment [3] addresses Cholinesterase (Equus caballus) (UniProt P81908). The experiment can be described thus: Inhibition of equine serum BuChE at 10 uM using butyrylthiocholine chloride as substrate pre-incubated for 5 mins followed by substrate addition and measured after 5 mins by Ellman's method relative to control.
Experiment [4] deals with Amyloid-beta precursor protein (Homo sapiens) (UniProt P05067). In words: Inhibition of HFIP-pretreated amyloid beta (1 to 42) (unknown origin) aggregation at 10 uM after 48 hrs measured every 3 mins by thioflavin T-based fluorometric assay relative to control.
The target of experiment [5] is Microtubule-associated protein tau (Homo sapiens) (UniProt P10636). The experiment can be described thus: Inhibition of tau aggregation (unknown origin) at 10 uM expressed in Escherichia coli BL21 (DE3) incubated for 24 hrs by thioflavin T-based fluorometric assay relative to control.
Experiment [6] can be described thus: Metal chelating activity assessed as Cu2+-compound complex formation at 50 uM after 30 mins by UV-Visible spectrophotometric method.
A short description of experiment [7]: Antioxidant activity assessed as ABTS radical scavenging activity at 30 uM measured after 5 mins by spectrophotometric assay relative to control. It counts as functional.
Experiment [8] can be described thus: Antioxidant activity assessed as ABTS radical scavenging activity at 75 uM measured after 5 mins by spectrophotometric assay relative to control. It counts as functional.
The nature of experiment [9]: Antioxidant activity assessed as ABTS radical scavenging activity at 150 uM measured after 5 mins by spectrophotometric assay relative to control. In kind it is functional.
Experiment [10] is described as follows: Antioxidant activity assessed as ABTS radical scavenging activity at 30 uM measured after 30 mins by spectrophotometric assay relative to control. It counts as functional.
A short description of experiment [11]: Antioxidant activity assessed as ABTS radical scavenging activity at 75 uM measured after 30 mins by spectrophotometric assay relative to control. In kind it is functional.
Experiment [12] is described as follows: Antioxidant activity assessed as ABTS radical scavenging activity at 150 uM measured after 30 mins by spectrophotometric assay relative to control. It counts as functional.
The nature of experiment [13]: Antioxidant activity assessed as ABTS radical scavenging activity at 30 uM measured after 60 mins by spectrophotometric assay relative to control. In kind it is functional.
Experiment [14] can be described thus: Antioxidant activity assessed as ABTS radical scavenging activity at 75 uM measured after 60 mins by spectrophotometric assay relative to control. In kind it is functional.
Experiment [15] is described as follows: Antioxidant activity assessed as ABTS radical scavenging activity at 150 uM measured after 60 mins by spectrophotometric assay relative to control. It counts as functional.
The nature of experiment [16]: Antioxidant activity assessed as increase in total ferric ion reducing activity at 30 uM using FeCl3.H2O and TPTZ incubated for 5 mins by FRAP assay relative to control. In kind it is functional. Set-up: scale not given: the % may be the effect or the level left.
Experiment [17] is described as follows: Antioxidant activity assessed as increase in total ferric ion reducing activity at 75 uM using FeCl3.H2O and TPTZ incubated for 5 mins by FRAP assay relative to control. It counts as functional. Set-up: scale not given: the % may be the effect or the level left.
A short description of experiment [18]: Antioxidant activity assessed as increase in total ferric ion reducing activity at 150 uM using FeCl3.H2O and TPTZ incubated for 5 mins by FRAP assay relative to control. It counts as functional. Set-up: scale not given: the % may be the effect or the level left.
Experiment [19] can be described thus: Antioxidant activity assessed as increase in total ferric ion reducing activity at 30 uM using FeCl3.H2O and TPTZ incubated for 30 mins by FRAP assay relative to control. In kind it is functional. The arrangement: scale not given: the % may be the effect or the level left.
Experiment [20] can be described thus: Antioxidant activity assessed as increase in total ferric ion reducing activity at 75 uM using FeCl3.H2O and TPTZ incubated for 30 mins by FRAP assay relative to control. In kind it is functional. The arrangement: scale not given: the % may be the effect or the level left.
Experiment [21] is described as follows: Antioxidant activity assessed as increase in total ferric ion reducing activity at 150 uM using FeCl3.H2O and TPTZ incubated for 30 mins by FRAP assay relative to control. It counts as functional. Set-up: scale not given: the % may be the effect or the level left.
Experiment [22] is described as follows: Antioxidant activity assessed as increase in total ferric ion reducing activity at 30 uM using FeCl3.H2O and TPTZ incubated for 60 mins by FRAP assay relative to control. Set-up: scale not given: the % may be the effect or the level left. It counts as functional.
Experiment [23] can be described thus: Antioxidant activity assessed as increase in total ferric ion reducing activity at 75 uM using FeCl3.H2O and TPTZ incubated for 60 mins by FRAP assay relative to control. It counts as functional. Set-up: scale not given: the % may be the effect or the level left.
The nature of experiment [24]: Antioxidant activity assessed as increase in total ferric ion reducing activity at 150 uM using FeCl3.H2O and TPTZ incubated for 60 mins by FRAP assay relative to control. Set-up: scale not given: the % may be the effect or the level left. In kind it is functional.
Experiment [25] deals with Amyloid-beta precursor protein (Homo sapiens) (UniProt P05067). To be noted: at 10 µM.
Description: Inhibition of amyloid beta (1 to 42) (unknown origin) aggregation at 10 uM expressed in Escherichia coli BL21 (DE3) incubated for 24 hrs by thioflavin T-based fluorometric assay relative to control
The target in experiment [26] is T1, Beta-secretase 1. In words: Inhibition of BACE1 (unknown origin).
A further experiment addresses Cholinesterase (Equus caballus, UniProt P81908). The experiment can be described thus: Inhibition of equine BuChE.
Experiment [27] addresses T1, Beta-secretase 1.

inhibition, Activity and IC50 data for 4 compounds are collected here from ChEMBL document CHEMBL4376850, “1-Benzylpyrrolidine-3-amine-based BuChE inhibitors with anti-aggregating, antioxidant and metal-chelating properties as multifunctional agents against Alzheimer's disease” (Eur J Med Chem, 2020).

pIC50: −log10 of the molar value. The source made the active and inactive calls. No cut-off for these calls is given here.

Chain of Cholinesterase (Equus caballus) (P81908 whole entry): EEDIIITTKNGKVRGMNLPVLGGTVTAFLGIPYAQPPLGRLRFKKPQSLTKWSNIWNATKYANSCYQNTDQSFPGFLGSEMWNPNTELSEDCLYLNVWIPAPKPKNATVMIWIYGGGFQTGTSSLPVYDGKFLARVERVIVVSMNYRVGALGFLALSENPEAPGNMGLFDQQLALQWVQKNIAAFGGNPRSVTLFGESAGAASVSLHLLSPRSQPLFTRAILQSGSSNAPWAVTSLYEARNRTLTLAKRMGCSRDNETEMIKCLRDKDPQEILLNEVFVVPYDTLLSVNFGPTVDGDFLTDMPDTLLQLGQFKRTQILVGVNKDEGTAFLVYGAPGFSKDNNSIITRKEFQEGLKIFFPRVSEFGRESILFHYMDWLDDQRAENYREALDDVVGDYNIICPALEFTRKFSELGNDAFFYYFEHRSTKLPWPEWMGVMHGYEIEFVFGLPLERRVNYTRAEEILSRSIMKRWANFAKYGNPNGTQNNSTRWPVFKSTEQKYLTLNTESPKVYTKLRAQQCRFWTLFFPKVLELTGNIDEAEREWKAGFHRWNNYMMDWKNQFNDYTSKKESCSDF
Chain of Amyloid-beta precursor protein (Homo sapiens) (P05067 whole entry): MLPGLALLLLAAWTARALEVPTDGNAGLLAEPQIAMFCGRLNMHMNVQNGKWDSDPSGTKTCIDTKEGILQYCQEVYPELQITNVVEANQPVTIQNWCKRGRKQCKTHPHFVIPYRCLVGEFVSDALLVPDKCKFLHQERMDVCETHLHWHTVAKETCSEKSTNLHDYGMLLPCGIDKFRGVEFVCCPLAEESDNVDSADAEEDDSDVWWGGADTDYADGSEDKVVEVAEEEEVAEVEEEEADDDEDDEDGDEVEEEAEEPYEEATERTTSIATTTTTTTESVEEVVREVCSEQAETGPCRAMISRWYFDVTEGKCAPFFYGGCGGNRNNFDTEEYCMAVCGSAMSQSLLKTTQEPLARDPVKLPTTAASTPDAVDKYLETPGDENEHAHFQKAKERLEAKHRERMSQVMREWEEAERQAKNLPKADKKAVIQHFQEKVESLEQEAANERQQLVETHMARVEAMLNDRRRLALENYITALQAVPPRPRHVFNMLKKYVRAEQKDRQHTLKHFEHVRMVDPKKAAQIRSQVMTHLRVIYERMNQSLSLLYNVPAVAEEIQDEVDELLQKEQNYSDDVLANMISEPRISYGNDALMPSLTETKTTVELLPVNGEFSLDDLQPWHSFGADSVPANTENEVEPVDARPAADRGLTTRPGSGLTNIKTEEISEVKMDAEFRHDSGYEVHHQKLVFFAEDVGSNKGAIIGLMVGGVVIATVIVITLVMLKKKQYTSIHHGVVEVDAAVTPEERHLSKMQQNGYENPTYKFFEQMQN
Chain of Microtubule-associated protein tau (Homo sapiens) (P10636 whole entry): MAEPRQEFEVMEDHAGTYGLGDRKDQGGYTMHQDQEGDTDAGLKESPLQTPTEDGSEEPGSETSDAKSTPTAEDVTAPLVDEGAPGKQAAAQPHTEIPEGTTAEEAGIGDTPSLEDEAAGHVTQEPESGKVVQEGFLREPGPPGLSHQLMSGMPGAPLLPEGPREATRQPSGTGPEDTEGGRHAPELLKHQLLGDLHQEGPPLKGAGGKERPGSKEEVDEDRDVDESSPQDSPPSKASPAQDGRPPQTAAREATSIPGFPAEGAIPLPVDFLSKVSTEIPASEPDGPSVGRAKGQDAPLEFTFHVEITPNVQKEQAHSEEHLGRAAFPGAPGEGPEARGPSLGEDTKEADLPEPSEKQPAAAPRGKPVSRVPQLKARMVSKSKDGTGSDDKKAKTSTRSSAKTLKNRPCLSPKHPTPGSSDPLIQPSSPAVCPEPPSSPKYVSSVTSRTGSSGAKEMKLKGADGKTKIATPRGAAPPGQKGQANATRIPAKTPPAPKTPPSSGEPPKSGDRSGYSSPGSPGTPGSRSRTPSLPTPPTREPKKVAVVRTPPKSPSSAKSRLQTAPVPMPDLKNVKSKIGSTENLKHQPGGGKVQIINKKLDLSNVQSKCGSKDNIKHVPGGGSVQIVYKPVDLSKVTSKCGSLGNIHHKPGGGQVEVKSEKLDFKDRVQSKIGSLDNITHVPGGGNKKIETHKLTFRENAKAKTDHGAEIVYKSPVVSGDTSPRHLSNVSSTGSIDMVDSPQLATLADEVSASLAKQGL
Chain of Acetylcholinesterase (Electrophorus electricus) (O42275 24-633 limits assumed): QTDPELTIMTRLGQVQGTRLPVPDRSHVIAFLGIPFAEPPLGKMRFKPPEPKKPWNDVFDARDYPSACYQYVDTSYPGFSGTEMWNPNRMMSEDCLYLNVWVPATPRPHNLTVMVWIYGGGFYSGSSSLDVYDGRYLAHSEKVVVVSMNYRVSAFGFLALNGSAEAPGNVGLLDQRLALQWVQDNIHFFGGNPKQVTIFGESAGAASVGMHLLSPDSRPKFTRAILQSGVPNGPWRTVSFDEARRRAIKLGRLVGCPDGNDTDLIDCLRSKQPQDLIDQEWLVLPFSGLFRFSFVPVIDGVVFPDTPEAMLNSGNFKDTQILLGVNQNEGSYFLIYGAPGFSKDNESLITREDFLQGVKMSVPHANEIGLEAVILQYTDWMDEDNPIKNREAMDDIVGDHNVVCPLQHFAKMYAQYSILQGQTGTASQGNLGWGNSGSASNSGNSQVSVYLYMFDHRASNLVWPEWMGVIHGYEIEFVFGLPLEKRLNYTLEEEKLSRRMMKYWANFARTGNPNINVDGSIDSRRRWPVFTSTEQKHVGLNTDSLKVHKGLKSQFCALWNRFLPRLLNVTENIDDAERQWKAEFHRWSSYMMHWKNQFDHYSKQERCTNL
T1 sequence (P56817 whole entry): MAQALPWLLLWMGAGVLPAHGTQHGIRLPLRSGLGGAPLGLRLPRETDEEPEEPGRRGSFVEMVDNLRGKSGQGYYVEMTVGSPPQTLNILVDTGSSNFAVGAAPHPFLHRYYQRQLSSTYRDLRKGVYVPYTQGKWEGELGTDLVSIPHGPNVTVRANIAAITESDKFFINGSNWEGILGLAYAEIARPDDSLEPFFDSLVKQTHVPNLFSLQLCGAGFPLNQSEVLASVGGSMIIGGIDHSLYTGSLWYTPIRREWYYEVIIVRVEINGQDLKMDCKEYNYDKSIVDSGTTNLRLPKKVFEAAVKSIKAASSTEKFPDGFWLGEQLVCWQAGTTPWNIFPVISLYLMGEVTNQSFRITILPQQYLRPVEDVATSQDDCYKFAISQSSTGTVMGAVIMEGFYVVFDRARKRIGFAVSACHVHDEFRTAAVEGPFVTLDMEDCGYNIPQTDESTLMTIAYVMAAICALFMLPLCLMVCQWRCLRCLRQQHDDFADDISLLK
Chain of Cholinesterase (P81908 whole entry): as the sequence (P81908 whole entry) above

As to `c1ccc(CN2CCC(NCCN3CCN(C(c4ccccc4)c4ccccc4)CC3)C2)cc1` (stereo unspecified), the inhibition at Beta-secretase 1 [1] came to 34.2%; in experiment [2], 27.6%; in [3], 46.2%; in experiment [4], 27.7%; in [5], 64%; in experiment [25] it was 31.6%. Further, the result in experiment [6] was Active. In addition, the Activity is 22% in experiment [7]; 29% in experiment [8]; 51% in experiment [9]; 41% in experiment [10]; 52% in [11]; 77% in experiment [12]. The Activity was 47% in [13]; 59% in [14]; 84% in experiment [15]; 4% in [16]; 4% in experiment [17]; 19% in [18]. For the same compound, the Activity in [19] is 8%; in [20], 10%; in experiment [21], 21%; in [22] it was 11%; in [23], 12%; in [24], 25%.

In the case of `Cc1c(OCc2ccccc2)cccc1N1CCN(CC(=O)NC2CCN(Cc3ccccc3)C2)CC1` (stereo unspecified), the outcome in [6] was Active. Besides, the pIC50 against Beta-secretase 1 [26] is 4.48; on Cholinesterase it was 4.12.

On to `O=C(CN1CCC(C(c2ccccc2)c2ccccc2)CC1)NC1CCN(Cc2ccccc2)C1` (stereo unspecified), for which the inhibition is 52.2% against Beta-secretase 1 [1]; < 10% in [2]; 24.6% in [3]; 35.3% in [4]; 64.3% in [5]; 53.3% in experiment [25]. In addition, the pIC50 against Beta-secretase 1 [27] was 4.26.

Consider `c1ccc(CN2CCC(NCCN3CCC(C(c4ccccc4)c4ccccc4)CC3)C2)cc1` (stereo unspecified), for which the inhibition turned out to be 54.3% against Beta-secretase 1 [1]; 25.2% in experiment [2]; 44.2% in experiment [3]; 60.4% in [5]; 31.7% in experiment [25]. At Beta-secretase 1 [27], this compound gave a negative logarithm of the IC50 (pIC50) of 4.30.
